Results on 9 compounds are retold here after article PMC6331789, “Phytochemicals from Ruta graveolens Activate TAS2R Bitter Taste Receptors and TRP Channels Involved in Gustation and Nociception” (Molecules, 2015).

A word on the EC50: it is the concentration needed to bring the measured effect to its halfway point.

“Also recorded” adds a separate entry of the source.

One assay concerns the target T1, TRPM5 (Homo sapiens, UniProt Q9NZQ8).
T1 construct: expressed in transfected cells
T1 sequence (Q9NZQ8 1-1165): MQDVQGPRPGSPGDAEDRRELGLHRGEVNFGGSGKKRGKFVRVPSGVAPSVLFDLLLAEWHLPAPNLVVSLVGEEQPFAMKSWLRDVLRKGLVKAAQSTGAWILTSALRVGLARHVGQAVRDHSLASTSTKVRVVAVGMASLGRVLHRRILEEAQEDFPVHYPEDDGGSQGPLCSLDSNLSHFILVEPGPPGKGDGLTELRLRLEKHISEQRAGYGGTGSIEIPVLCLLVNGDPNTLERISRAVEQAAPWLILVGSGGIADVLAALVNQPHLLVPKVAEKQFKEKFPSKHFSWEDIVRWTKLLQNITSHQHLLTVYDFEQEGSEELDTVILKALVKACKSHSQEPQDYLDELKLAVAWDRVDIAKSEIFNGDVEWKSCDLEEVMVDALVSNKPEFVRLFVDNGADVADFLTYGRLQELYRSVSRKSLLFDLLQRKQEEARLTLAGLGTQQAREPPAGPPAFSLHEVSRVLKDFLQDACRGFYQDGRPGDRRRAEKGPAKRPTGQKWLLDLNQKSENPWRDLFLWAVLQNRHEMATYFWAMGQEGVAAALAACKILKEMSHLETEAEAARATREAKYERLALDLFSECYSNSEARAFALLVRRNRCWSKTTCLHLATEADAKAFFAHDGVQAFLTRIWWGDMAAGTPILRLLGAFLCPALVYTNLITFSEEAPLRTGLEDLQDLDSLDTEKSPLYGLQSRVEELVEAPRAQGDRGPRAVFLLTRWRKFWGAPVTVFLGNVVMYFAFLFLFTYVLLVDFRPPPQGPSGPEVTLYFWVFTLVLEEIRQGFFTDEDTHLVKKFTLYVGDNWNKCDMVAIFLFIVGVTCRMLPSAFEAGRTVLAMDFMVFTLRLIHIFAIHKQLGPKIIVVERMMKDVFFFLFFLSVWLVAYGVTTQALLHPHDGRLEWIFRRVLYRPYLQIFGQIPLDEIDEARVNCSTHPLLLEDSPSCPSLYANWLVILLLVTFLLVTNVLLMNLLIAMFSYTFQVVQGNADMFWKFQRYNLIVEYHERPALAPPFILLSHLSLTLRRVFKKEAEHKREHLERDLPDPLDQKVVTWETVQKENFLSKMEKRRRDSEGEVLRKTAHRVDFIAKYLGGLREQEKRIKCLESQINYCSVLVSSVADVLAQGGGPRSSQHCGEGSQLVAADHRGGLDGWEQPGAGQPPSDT
Nature of the assay: In vitro membrane potential dye assay (FLIPR) on HEK293T cells stably overexpressing TRPM5. The format is cell-based. The settings on record: for TRPM5 screening result: single dose, qualitative. An excerpt:
(§1) Pure phytochemicals were submitted to in vitro assays with a platform of twenty cloned receptors of the bitter taste TAS2R family and four receptors of the TRP family related to the perception of taste and somatosensory sensations. All experiments have been repeated three times, each time with four replicates. […] For simplicity, only those bitter taste receptors having reproducible positive assay, namely TASR10, 14 and 49, are reported (Table 1).
(§2) For those compounds showing activity on one or more receptor(s), the concentration/response curves were plotted and the EC50 calculated.
(§3) For the biological tests, several compounds were purchased as references from different suppliers (Sigma Aldrich, ChromaDex, Irvine, CA, USA, and Tocris Bioscience, Bristol, UK) and dissolved in assay buffer (130 mM NaCl, 5 mM KCl, 1 mM MgCl2, 2 mM CaCl2, 5 mM NaHCO3 and 20 mM HEPES, pH 7.4) or in a mixture of assay buffer and DMSO, never exceeding a final DMSO concentration of 0.5% (v/v) to avoid toxic effects and possible artefacts on transfected cells.
(§4) All human TAS2R and G15Gi1 cDNAs were produced as reported in Bassoli et al. cDNAs for human TRPA1-M5-M8-V1-V4 were cloned into a pcDNA6 expression vector (Invitrogen-Thermo Fisher, Waltham, MA, USA).
(§5) All experiments were performed using HEK293T cells (ATCC).
For TRP platform experiments, cells were cultured in MEM/EBSS medium (ECB2071L EuroClone, Milan, Italy) plus 10% (v/v) fetal bovine serum (FBS) (26400-044 Gibco, Karlsruhe, Germany) and 1% (v/v) Pen/Strep 10K/10K stock (17-602E Lonza, Basel, Switzerland). Stable cell lines were generated overexpressing each TRP channel, and clones were selected with 500 µg/mL of G418 (ant-gn-5 Invivogen, Karlsruhe, Germany). To analyze TRP receptor responses, cells were plated at a concentration of 20,000 cells/well in 384-well plates (GR-4330 Twin Helix srl, Milan, Italy). Cellular responses were measured 24 h after seeding.
For TRPM5 experiments, cells were loaded 24 h after seeding with a Membrane Potential Dye (R8034 MDC) solution in assay buffer according to the manufacturer’s instructions and incubated at 37 °C for 1 h before acquisition. All experiments were performed using a fluorometric imaging plate reader (FLIPR^TETRA, Molecular Devices equipped with ICCD Camera from Stanford Photonics, INC, (Palo Alto, CA, USA) and kinetics were visualized with Molecular Devices’ Screenworks 3.0 (Sunnyvale, CA, USA).
(§6) For the calculation of concentration-response curves, responses were calculated as the difference between maximal and minimal relative fluorescence unit (RFU) values in a selected time window (11–60 s) and were normalized to the basal well fluorescence (Time Point 1, before compound injection) in order to compensate for differences in cell density (∆F/F0). All of the experiments have been repeated three times, each time with four replicates. All of the results are averages of at least four replicates. Raw data are available in Supplementary Material, Figures S3–S6.

Another assay deals with T2, TAS2R49 (Homo sapiens, UniProt P59543).
T2 construct: expressed in transfected cells; host or cells: HEK293T
T2 sequence (P59543 1-309): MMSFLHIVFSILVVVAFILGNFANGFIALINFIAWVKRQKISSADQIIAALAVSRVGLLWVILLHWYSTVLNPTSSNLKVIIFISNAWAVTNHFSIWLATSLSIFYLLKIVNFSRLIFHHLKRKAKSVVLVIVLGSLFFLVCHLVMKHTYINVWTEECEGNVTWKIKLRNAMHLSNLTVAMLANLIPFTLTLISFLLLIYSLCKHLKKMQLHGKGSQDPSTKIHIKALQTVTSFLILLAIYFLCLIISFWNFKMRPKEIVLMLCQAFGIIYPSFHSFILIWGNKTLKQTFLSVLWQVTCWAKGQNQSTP
The assay can be described thus: In vitro calcium imaging assay on cloned TAS2R49 in transfected HEK293T cells. The format is cell-based. The settings on record: for TAS2R49 screening result: single dose, qualitative.
Excerpt: as §1, §2, §3, §4, §5
(§7) For the bitter platform experiments, cells were cultured, transfected and analyzed as previously described.
(§8) For the bitter platform experiments, data analyses were performed as previously described.
as §6

Assay [1] deals with twenty TAS2R bitter taste receptors. The assay can be described thus: In vitro screening on the platform of twenty cloned TAS2R bitter taste receptors. The format is cell-based, human. The settings on record: at the tested concentration.
Excerpt: as §1, §3, §4, §5, §7, §8, §6

For the compound `C[C@@H]1O[C@@H](OC[C@H]2O[C@@H](Oc3c(-c4ccc(O)c(O)c4)oc4cc(O)cc(O)c4c3=O)[C@H](O)[C@@H](O)[C@@H]2O)[C@H](O)[C@H](O)[C@H]1O` [Compound 1, rutin], at TRPM5, the TRPM5 screening result was “−”. For the same compound, on TAS2R49, the TAS2R49 screening result is listed as “−”. For the same compound, the “Response on the twenty TAS2R receptors (in words)” value (“Response” for short) in assay [1] was “inactive”.
Consider `C=CC(C)(C)c1cc2cc3c(cc2oc1=O)OC(C(C)(C)OC(C)=O)C3` (centres unmarked) [Compound 2, rutamarin], for which, on TRPM5, the “Activity on TRPM5 (in words)” value is “activated” and the TRPM5 screening result is given as “+”. In addition, the EC50 on TRPM5 (concentration/response curve, values with ≥ estimated) is at least 26.7 µM. Further, the TAS2R49 screening result at TAS2R49 is “−”.
Take `COc1c2ccoc2cc2oc(=O)ccc12` [Compound 3, bergapten]: the TRPM5 screening result at TRPM5 is given as “−”. Moreover, the TAS2R49 screening result at TAS2R49 was “−”.
As for `COc1c2occc2cc2ccc(=O)oc12` [Compound 4, xanthotoxin], the TRPM5 screening result at TRPM5 was “−”. In addition, on TAS2R49, the “Activity on TAS2R49 (in words)” value is on record as “responded; also recorded: able to activate”, the EC50 was 12 µM and the TAS2R49 screening result is “++”.
As for `COc1c2ccoc2c(OC)c2oc(=O)ccc12` [Compound 5, isopimpinellin], on TRPM5, the TRPM5 screening result is “−”. The TAS2R49 screening result at TAS2R49 was “−”.
`COc1cc2nc3occc3c(OC)c2cc1OC` [Compound 7, kokusaginin]: on TRPM5, the TRPM5 screening result is “−”. Also, on TAS2R49, the TAS2R49 screening result is “−”. In addition, in assay [1], the “Response” value is “did not respond”.
As to `COc1ccc2c(OC)c3ccoc3nc2c1OC` [Compound 8, skimmianine], the TRPM5 screening result on TRPM5 is “−”. The TAS2R49 screening result at TAS2R49 is on record as “−”.
Take `CCCCCCCCCC(C)=O` [Compound 9, 2-undecanone]: at TRPM5, the TRPM5 screening result was “−”. The TAS2R49 screening result at TAS2R49 was “−”. Further, in assay [1], the “Response” value was “inactive”.
For `CCCCCCCC(C)=O` [Compound 10, 2-nonanone], the TRPM5 screening result on TRPM5 was “−”. Further, the TAS2R49 screening result on TAS2R49 is on record as “−”. Besides, the “Response” value in assay [1] is “inactive”.
